In one assay the target is T1, PDE4Bcat (Homo sapiens, UniProt Q07343).
T1 construct: catalytic domain (indicated as “cat,” hereinafter), PDE4Bcat; made in house; host or cells: Sf9 insect cells (baculovirus, Bac-to-Bac)
The experiment in a line: Inhibition of phosphodiesterase activity, [3H]-cAMP hydrolysis, recombinant PDE4Bcat. In kind it is biochemical. Conditions: cAMP 2 μmol/L, read-out: IC50(μmol/L) PDE4. The protocol:
(§1) RT-PCR was performed to isolate cDNA fragments of PDE3A catalytic domain (indicated as “cat,” hereinafter), PDE4Bcat, PDE5Acat and PDE10A1 from human RNA. Using Gateway system (Invitrogen) and Bac-to-Bac (registered trademark) Baculovirus Expression system (Invitrogen), the isolated cDNA fragments were transfected into Sf9 insect cells for expression of the PDE proteins. The recombinant PDE3Acat, PDE4Bcat, PDE5Acat and PDE10A1 proteins were isolated from culture supernatant or cell extracts of Sf9 cells expressed high levels of these proteins by ion-exchange chromatography and used for the following experiments.
(§2) 4 mmol/L solution of each test compound was serially diluted 4-fold with 15% DMSO solution to prepare the solutions with concentrations of 15 nmol/L to 4 mmol/L (final concentrations=1.5 nmol/L-400 μmol/L). 10 μL of each test compound solution was added to each well of 96 plate with 10 μL of [^3H]-cAMP or [^3H]-cGMP solution, diluted with a buffer (40 mmol/L Tris-HCl (pH 7.4), 10 mmol/L MgCl2) to the concentration shown in Table 20 and 40 μL of each of the human recombinant PDE proteins in units shown in Table 20. The plate was incubated at 30° C. for 20 min, and then at 65° C. for 2 min. Subsequently, 25 μL of 1 mg/mL 5′-nucleotidase (Crotalus atrox venom, Sigma) was added to each well and the plate was incubated at 30° C. for 10 min. 200 μL of Dowex solution (300 mg/mL Dowex 1×8-400 (Sigma Aldrich), 33% ethanol) was then added to each well and the plate was shaken at 4° C. for 20 min. Subsequently, 200 μL of MicroScint 20 (Packard) was added to each well and the radioactivity of each sample was measured by a scintillation counter (Topcount, Packard) IC50 was calculated by GraphPad Prism v3.03 (GraphPad Software).

Assay [1] deals with T2, PDE3A catalytic domain (PDE3Acat) (Homo sapiens, UniProt Q14432).
T2 construct: cDNA fragments of PDE3A catalytic domain (indicated as “cat,” hereinafter); made in house; host or cells: Sf9 insect cells (baculovirus, Bac-to-Bac)
T2 sequence (Q14432 674-1093 limits assumed): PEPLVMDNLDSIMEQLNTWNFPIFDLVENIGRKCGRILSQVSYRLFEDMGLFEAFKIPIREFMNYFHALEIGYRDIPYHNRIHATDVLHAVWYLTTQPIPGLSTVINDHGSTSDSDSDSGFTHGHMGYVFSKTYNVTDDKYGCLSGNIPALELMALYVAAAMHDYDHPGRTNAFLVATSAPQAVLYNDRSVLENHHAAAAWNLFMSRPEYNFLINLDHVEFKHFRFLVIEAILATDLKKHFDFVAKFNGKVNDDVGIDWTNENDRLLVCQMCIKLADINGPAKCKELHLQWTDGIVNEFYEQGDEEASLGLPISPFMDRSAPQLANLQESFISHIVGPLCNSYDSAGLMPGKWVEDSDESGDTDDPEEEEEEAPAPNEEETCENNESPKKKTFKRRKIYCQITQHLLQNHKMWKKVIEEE
In words: Inhibition of phosphodiesterase activity, [3H]-cAMP hydrolysis, recombinant PDE3Acat. In kind it is biochemical. Conditions: human recombinant PDE3Acat, cAMP 2 μmol/L; read-out: IC50(μmol/L) PDE3. The protocol: as §1, §2

The subject of assay [2] is histamine-induced bronchoconstriction. In words: Histamine-induced bronchoconstriction in guinea pigs. In kind it is in vivo, guinea pig. Conditions: Cavia porcellus, iv, 0.5 min, 30 seconds after administration, histamine 12.5 μg/kg i.v.; for inhibition in vivo at 0.1 mg/kg: values in brackets: test compound 0.1 mg/kg, i.v.; for inhibition in vivo at 1 mg/kg: test compound 1 mg/kg i.v. As for the experimental part:
Guinea pigs were anesthetized with pentobarbital (30 mg/kg, i.p.). A cannula for IV administeration, a cannula for collecting blood and measurement of blood pressure and a trachea cannula were inserted into the left exterior jugular vein, right interior carotid artery and trachea, respectively. The animals were placed under artificial respiration at 60 times/min and 10 mL/kg/stroke. The airflow through the branch of the tracheal cannula was measured by a bronchospasm transducer (Ugo-Basile) and recorded on a computer via Power Lab (ADInstruments Japan). The animals were immobilized with gallamine (10 mg/kg, i.v.), then administered histamine at 10-minute intervals (12.5 μg/kg, i.v.). […] To examine the inhibitory activity of test compound, the histamine-induced bronchoconstriction was measured after 30 seconds of drug administration. The bronchoconstriction was recorded as the change of the airflow: The results were shown by percentages of the maximum histamine-induced bronchoconstriction. Each test compound was prepared as a 10 mg/mL solution in DMSO. Gallamine was prepared as a 10 mg/mL solution in physiological saline. Histamine was prepared as a 1 mg/mL solution in physiological saline, which was diluted with physiological saline to 62.5 μg/mL for use.

T1 sequence (Q07343 330-659 limits assumed): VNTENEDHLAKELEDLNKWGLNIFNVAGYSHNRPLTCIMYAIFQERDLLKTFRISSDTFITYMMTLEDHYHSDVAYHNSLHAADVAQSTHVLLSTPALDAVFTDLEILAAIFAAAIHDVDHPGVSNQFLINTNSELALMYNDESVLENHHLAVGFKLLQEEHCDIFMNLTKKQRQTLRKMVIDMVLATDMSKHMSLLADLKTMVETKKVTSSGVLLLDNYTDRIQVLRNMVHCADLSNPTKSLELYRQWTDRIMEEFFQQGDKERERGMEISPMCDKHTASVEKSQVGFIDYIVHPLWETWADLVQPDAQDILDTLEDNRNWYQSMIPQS

Consider `CCc1cc2c(C3=NNC(=O)CC3C)ccc(N(C)C)n2n1` (stereo not drawn) [Example 224], for which the IC50 on PDE4Bcat is 0.1 to 1 µmol/L; in assay [1], 1 to 10 µmol/L.
Take `COc1ccc(C2=NNC(=O)CC2C)c2cc(C3CC3)nn12` (stereo not drawn) [Example 218]: the figures for the IC50 (at PDE4Bcat; in assay [1]) were 0.1 to 1 µmol/L and 1 to 10 µmol/L, respectively. The inhibition in vivo at 0.1 mg/kg in assay [2] was at least 90%.
In the case of `COc1ccc(C2=NNC(=O)CC2C)c2cc(SC)nn12` (stereo not drawn) [Example 219], on PDE4Bcat, the IC50 is 0.1 to 1 µmol/L. Besides, in assay [2], the inhibition in vivo at 0.1 mg/kg was at least 90%.
Compound `CCc1cc2c(C3=NNC(=O)CC3C)ccc(C(C)=O)n2n1` (stereo not drawn) [Example 235, 6-(7-acetyl-2-ethyl-pyrazolo[1,5-a]pyridine-4-yl)-4,5-dihydro-5-methyl-3-(2H)-pyridazinone] showed an inhibition in vivo at 0.1 mg/kg in assay [2] of at least 90%.
With `CCOc1ccc(C2=NNC(=O)CC2C)c2cc(CC)nn12` (stereo not drawn) [Example 244, 6-(7-ethoxy-2-ethyl-pyrazolo[1,5-a]pyridine-4-yl)-4,5-dihydro-5-methyl-3-(2H)-pyridazinone], the IC50 (on PDE4Bcat; in assay [1]) was 1 to 10 µmol/L throughout.
On to `COc1ccc(-c2ccc(=O)[nH]n2)c2cc(C(F)(F)F)nn12` [Example 302, 6-(2-trifluoromethyl-7-methoxy-pyrazolo[1,5-a]pyridine-4-yl)-3-(2H)-pyridazinone], for which the results for the IC50 (at PDE4Bcat; in assay [1]) were 0.1 to 1 µmol/L and 1 to 10 µmol/L, respectively. In assay [2], this compound yielded an inhibition in vivo at 0.1 mg/kg of at least 90%.
On to `CCOC(=O)c1ccc(C2=NNC(=O)CC2C)c2cc(CC)nn12` (stereo not drawn) [Example 204], for which the IC50 (at PDE4Bcat; in assay [1]) was 1 to 10 µmol/L throughout.
As for `CCc1cc2c(C3=NN(Cc4cccnc4)C(=O)CC3C)cc(F)cn2n1` (stereo not drawn) [Example 287, 6-(2-ethyl-6-fluoro-pyrazolo[1,5-a]pyridine-4-yl)-4,5-dihydro-5-methyl-2-(pyridine-3-ylmethyl)-3-(2H)-pyridazinone], the results for the IC50 (at PDE4Bcat; in assay [1]) were 1 to 10 µmol/L and above 10 µmol/L, respectively.
For `CCc1cc2c(C3=NNC(=O)CC3C)ccc([S+](C)[O-])n2n1` (stereo not drawn) [Example 249, 6-(2-ethyl-7-methylsulfinyl-pyrazolo[1,5-a]pyridine-4-yl)-4,5-dihydro-5-methyl-3-(2H)-pyridazinone], the IC50 was below 1 µmol/L at PDE4Bcat and 1 to 10 µmol/L in assay [1]. The compound further showed an inhibition in vivo at 0.1 mg/kg in assay [2] of at least 90%.
On to `COc1ccc(C2=NNC(=O)CC2C)c2cc(CO)nn12` (stereo not drawn) [Example 221], for which the IC50 (at PDE4Bcat; in assay [1]) was 1 to 10 µmol/L each time.
As for `COc1ccc(-c2n[nH]c(=O)cc2C)c2cc(C(F)(F)F)nn12` [Example 303], the IC50 at PDE4Bcat is 1 to 10 µmol/L; in assay [1], above 10 µmol/L.
Take `CCc1nn2cc(Cl)cc(C3=NNC(=O)CC3C)c2c1Cl` (stereo not drawn) [Example 203]: the IC50 on PDE4Bcat was 0.1 to 1 µmol/L; in assay [1] it was above 10 µmol/L. The same compound registered an inhibition in vivo at 1 mg/kg in assay [2] of 70 to 80%.
Take `CCCc1cc2c(C3=NNC(=O)CC3C)ccc(OC)n2n1` (stereo not drawn) [Example 217]: the figures for the IC50 (on PDE4Bcat; in assay [1]) were 0.1 to 1 µmol/L and 1 to 10 µmol/L, respectively. In assay [2], this compound had an inhibition in vivo at 0.1 mg/kg of at least 90%.
As for `COc1ccc(C2=NNC(=O)CC2C)c2cc(C(C)F)nn12` (stereo not drawn) [Example 240, 6-[2-(1-fluoroethyl)-7-methoxy-pyrazolo[1,5-a]pyridine-4-yl]-4,5-dihydro-5-methyl-3-(2H)-pyridazinone], the values for the IC50 (at PDE4Bcat; in assay [1]) were below 1 µmol/L and 1 to 10 µmol/L, respectively. Also, in assay [2], the inhibition in vivo at 0.1 mg/kg was at least 90%.
For `COc1ccc(C2=NNC(=O)CC2C)c2cc(C(F)F)nn12` (stereo not drawn) [Example 222] the same measures were below 1 µmol/L, 1 to 10 µmol/L and 70 to 80%.
With `COc1ccc(C2=NNC(=O)CC2C)c2cc(CF)nn12` (stereo not drawn) [Example 236, 6-(2-fluoromethyl-7-methoxy-pyrazolo[1,5-a]pyridine-4-yl)-4,5-dihydro-5-methyl-3-(2H)-pyridazinone], the IC50 at PDE4Bcat lay within 0.1 to 1 µmol/L; in assay [1], 1 to 10 µmol/L.
For `COc1ccc(-c2cc(C)c(=O)n(Cc3cccnc3)n2)c2cc(C(C)C)nn12` [Example 299] the same measures were below 1 µmol/L and above 10 µmol/L.
For `CCc1cc2c(C3=NNC(=O)CC3C)ccc(N3CCOCC3)n2n1` (stereo not drawn) [Example 226] the same measures were above 10 µmol/L and 1 to 10 µmol/L.
For `CCc1cc2c(C3=NNC(=O)CC3C)ccc(-c3ccccc3)n2n1` (stereo not drawn) [Example 229] the same measures were 1 to 10 µmol/L and 1 to 10 µmol/L.
In the case of `CCc1cc2c(C3=NNC(=O)CC3C)ccc(NC(C)=O)n2n1` (stereo not drawn) [Example 228], the IC50 was above 10 µmol/L at PDE4Bcat and 1 to 10 µmol/L in assay [1].
As for `COc1ccc(C2=NNC(=O)CC2C)c2cc(C(C)=O)nn12` (stereo not drawn) [Example 241, 6-(2-acetyl-7-methoxy-pyrazolo[1,5-a]pyridine-4-yl)-4,5-dihydro-5-methyl-3-(2H)-pyridazinone], the IC50 is below 1 µmol/L on PDE4Bcat and 1 to 10 µmol/L in assay [1]. The compound also displayed an inhibition in vivo at 0.1 mg/kg in assay [2] of at least 90%.
`CCc1nn2c(OC)ccc(C3=NNC(=O)CC3C)c2c1Cl` (stereo not drawn) [Example 213]: the values for the IC50 (at PDE4Bcat; in assay [1]) were 0.1 to 1 µmol/L and above 10 µmol/L, respectively. In assay [2], this compound showed an inhibition in vivo at 1 mg/kg of 70 to 80%.
For `COc1ccc(C2=NNC(=O)CC2C)c2ccnn12` (stereo not drawn) [Example 214], the values for the IC50 (at PDE4Bcat; in assay [1]) were 1 to 10 µmol/L and below 1 µmol/L, respectively. This compound also had an inhibition in vivo at 0.1 mg/kg in assay [2] of 80 to 90%.
For the compound `C=Cc1cc2c(C3=NNC(=O)CC3C)ccc(OC)n2n1` (stereo not drawn) [Example 239, 6-(7-methoxy-2-vinyl-pyrazolo[1,5-a]pyridine-4-yl)-4,5-dihydro-5-methyl-3-(2H)-pyridazinone], the inhibition in vivo at 0.1 mg/kg in assay [2] was at least 90%.
With `COc1ccc(-c2ccc(=O)n(Cc3ccccn3)n2)c2cc(C(C)C)nn12` [Example 274], the IC50 on PDE4Bcat was 0.1 to 1 µmol/L; in assay [1], above 10 µmol/L.
For `CCc1nn2c(S(C)(=O)=O)ccc(C3=NNC(=O)CC3C)c2c1O` (stereo not drawn) [Example 252], the IC50 (on PDE4Bcat; in assay [1]) was 1 to 10 µmol/L throughout.
For `CCc1cc2c(C3=NNC(=O)CC3C)ccc(NC)n2n1` (stereo not drawn) [Example 225], the IC50 was below 1 µmol/L at PDE4Bcat and 1 to 10 µmol/L in assay [1]. The inhibition in vivo at 0.1 mg/kg in assay [2] was in the range of 80 to 90%.
Take `CCC1CC(=O)NN=C1c1ccc(OC)n2nc(C(F)(F)F)cc12` (stereo not drawn) [Example 212]: the IC50 on PDE4Bcat is below 1 µmol/L; in assay [1] it was above 10 µmol/L.
For `COc1ccc(-c2ccc(=O)n(Cc3ccncc3)n2)c2cc(C(C)C)nn12` [Example 275] the same measures were 1 to 10 µmol/L and above 10 µmol/L.
For `COc1ccc(C2=NNC(=O)CC2C)c2cc(C(C)O)nn12` (stereo not drawn) [Example 238, 6-[2-(1-hydroxyethyl)-7-methoxy-pyrazolo[1,5-a]pyridine-4-yl]-4,5-dihydro-5-methyl-3-(2H)-pyridazinone] the same measures were below 1 µmol/L and 1 to 10 µmol/L.
On the same counts, the results for `COc1ccc(-c2n[nH]c(=O)cc2C)c2c(F)c(C(C)C)nn12` [Example 279, 6-(3-fluoro-7-methoxy-2-isopropyl-pyrazolo[1,5-a]pyridine-4-yl)-5-methyl-3-(2H)-pyridazinone] are 0.1 to 1 µmol/L and above 10 µmol/L.
Turning to `COc1ccc(-c2nn(C)c(=O)cc2C)c2cc(C(C)C)nn12` [Example 297], the results for the IC50 (at PDE4Bcat; in assay [1]) were below 1 µmol/L and above 10 µmol/L, respectively.
Consider `CCc1cc2c(C3=NNC(=O)CC3C)ccc(S(C)(=O)=O)n2n1` (stereo not drawn) [Example 251, 6-(2-ethyl-7-methylsulfonyl-pyrazolo[1,5-a]pyridine-4-yl)-4,5-dihydro-5-methyl-3-(2H)-pyridazinone], for which the IC50 (at PDE4Bcat; in assay [1]) was 1 to 10 µmol/L throughout.

The values are drawn from patent publication US7763617B2, “Pyrazolopyridine-4-yl pyridazinone derivatives and addition salts thereof, and PDE inhibitors comprising the same derivatives or salts as active ingredient” (Kyorin Pharmaceutical Co., Ltd., priority 2005, dated 2010).
